Test results as given in patent US20210317140A1, “Heterocyclic Compounds and Methods of Use” (MEDIVATION TECHNOLOGIES, INC, priority 2013, published 2021).

Assays:
BTK = target: T1, BTK (Homo sapiens, UniProt Q06187); assay: BTK kinase assay (HotSpot, 33P ATP); type: biochemical; conditions: for BTK @ 0.1 μM (% Inh): 0.1 μM compound; for BTK @ 0.1 μM (% Inh) / BTK @ 1 μM (% Inh) / BTK @ 0.01 μM (% Inh): 10 μM ATP; for BTK @ 1 μM (% Inh): 1 μM compound; for IC50: 10 dose IC50, 10 μM ATP; for BTK @ 0.01 μM (% Inh): 0.01 μM compound
T1 construct: purchased Reaction Biology Corporation
Procedure, shortened: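 In 20 mM Hepes (pH 7.5) with 10 mM MgCl2, 1 mM EGTA, 0.1 mM Na3VO4, 2 mM DTT, 0.02% Brij35, 0.02 mg/mL BSA and 1% DMSO, kinase and substrate were exposed to ten compound doses for 15–20 min.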

PI3Kδ = target: T2, PI3Kδ (Homo sapiens, UniProt O00329); assay: PI3Kδ kinase assay (HTRF, PIP3 detection); type: biochemical; conditions: for PI3Kδ @ 0.1 μM (% Inh): 0.1 μM compound; for PI3Kδ @ 0.1 μM (% Inh) / PI3Kδ @ 1 μM (% Inh) / PI3Kδ @ 0.01 μM (% Inh): 10 μM ATP; for PI3Kδ @ 1 μM (% Inh): 1 μM compound; for IC50: 10 dose IC50, 10 μM ATP; for PI3Kδ @ 0.01 μM (% Inh): 0.01 μM compound
T2 construct: purchased Reaction Biology Corporation
Procedure, shortened: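 PIP3 formation read by loss of energy transfer as it displaces biotin-PIP3 from a Eu anti-GST/GST-PH/streptavidin-APC complex, calibrated against PIP3 standards.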

CD69+B220+ cells = assay: B cell activation assay (IgD-stimulated splenocytes, CD69+B220+ cells by FACS); type: cell-based; conditions: IgD 3 μg/mL, 4 h; for CD69 @ 100 nM (% Inh): 100 nM compound; for IC50: Splenocyte
Description: 1 Female mouse approximately 2 months old was euthanized with CO2 and the spleen removed. The tissue was homogenized with a polished glass microscope slide. The cells were collected in 5 mL complete medium (RPMI+10% FBS+pen/strep), placed in a 15 mL falcon tube and centrifuged at 500×g for 5 min. The supernatant was discarded and the pellet was resuspended in 3 mL of ACK lysis buffer (NH4Cl 0.17M, KHCO3 10 mM, EDTA-Na2 0.1 mM, pH 7.2), incubated at 37° C. for 5 min. 2 mL complete medium was added and the mixture centrifuged at 500×g for 5 min. The supernatant was discarded and the pellet resuspended in 1 mL complete medium. The mixture was passed through a […] cell strainer and collect in 50 mL falcon tube. Enough medium was added to have a total of 10 mL. The cells were counted and seeded in 24 or 48-well plate in 1 mL complete medium at 10^6 cells/mL. The plate was placed in a 37° C. incubator for 15 min. The cells were treated for 30 min at 37° C. with 100 nM test compound dissolved in 100% DMSO. 3 μL IgD (Accurate chemical and scientific corp.) was added at a final concentration of 3 μg/mL and the mixture incubated at 37° C. for 4 h. The cells were collected in 1.5 mL eppendorf tubes, centrifuged at 500×g for 5 min and then resuspended in 100 μL of PBS+2% FBS. The following antibodies were added: α-B220 PE (pharmingen #553090), α-CD69 APC (pharmingen #60689), live/dead fixable aqua dead cell stain kit (life technologies #L34957) all at 1:300, and the mixture incubated for 15 min at 4° C. in the dark. To this was added 900 μL of PBS+2% FBS and the mixture centrifuged at 500×g for 5 min. The supernatant was removed and the pellet resuspended in 300 μL of PBS+2% FBS and mixed well. The mixture was transferred to a cytometer tube. The samples were run in the FACS Canto II cytometer and quantified by the number of CD69+B220+ cells as a percentage of the total number of B220+ alive cells.

T2 sequence (O00329 whole entry): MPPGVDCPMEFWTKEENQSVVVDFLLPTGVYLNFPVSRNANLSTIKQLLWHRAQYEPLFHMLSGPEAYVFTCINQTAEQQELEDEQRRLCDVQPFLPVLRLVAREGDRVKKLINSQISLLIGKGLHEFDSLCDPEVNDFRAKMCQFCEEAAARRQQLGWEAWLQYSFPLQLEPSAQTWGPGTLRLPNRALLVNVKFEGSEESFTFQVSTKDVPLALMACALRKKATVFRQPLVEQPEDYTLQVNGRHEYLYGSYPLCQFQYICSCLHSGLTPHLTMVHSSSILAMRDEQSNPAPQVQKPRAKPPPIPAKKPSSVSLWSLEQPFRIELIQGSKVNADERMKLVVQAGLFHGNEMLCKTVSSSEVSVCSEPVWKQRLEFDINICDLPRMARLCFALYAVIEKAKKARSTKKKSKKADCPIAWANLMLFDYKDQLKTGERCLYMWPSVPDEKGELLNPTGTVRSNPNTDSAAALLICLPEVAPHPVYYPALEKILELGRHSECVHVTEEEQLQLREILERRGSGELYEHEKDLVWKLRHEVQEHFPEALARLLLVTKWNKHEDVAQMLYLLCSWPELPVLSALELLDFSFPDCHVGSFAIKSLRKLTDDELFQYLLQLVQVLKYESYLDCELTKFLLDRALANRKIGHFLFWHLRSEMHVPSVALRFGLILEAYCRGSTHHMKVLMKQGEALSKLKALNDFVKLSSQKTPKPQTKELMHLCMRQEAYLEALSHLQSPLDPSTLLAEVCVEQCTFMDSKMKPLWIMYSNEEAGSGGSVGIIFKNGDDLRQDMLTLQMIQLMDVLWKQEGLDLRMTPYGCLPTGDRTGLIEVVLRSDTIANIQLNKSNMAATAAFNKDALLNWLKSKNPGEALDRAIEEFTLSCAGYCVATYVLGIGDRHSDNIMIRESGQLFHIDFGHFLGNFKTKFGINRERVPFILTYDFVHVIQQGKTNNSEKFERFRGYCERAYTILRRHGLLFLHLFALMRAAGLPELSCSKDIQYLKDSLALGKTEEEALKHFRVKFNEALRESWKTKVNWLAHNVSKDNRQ
T2 sequence (P27986 whole entry partner): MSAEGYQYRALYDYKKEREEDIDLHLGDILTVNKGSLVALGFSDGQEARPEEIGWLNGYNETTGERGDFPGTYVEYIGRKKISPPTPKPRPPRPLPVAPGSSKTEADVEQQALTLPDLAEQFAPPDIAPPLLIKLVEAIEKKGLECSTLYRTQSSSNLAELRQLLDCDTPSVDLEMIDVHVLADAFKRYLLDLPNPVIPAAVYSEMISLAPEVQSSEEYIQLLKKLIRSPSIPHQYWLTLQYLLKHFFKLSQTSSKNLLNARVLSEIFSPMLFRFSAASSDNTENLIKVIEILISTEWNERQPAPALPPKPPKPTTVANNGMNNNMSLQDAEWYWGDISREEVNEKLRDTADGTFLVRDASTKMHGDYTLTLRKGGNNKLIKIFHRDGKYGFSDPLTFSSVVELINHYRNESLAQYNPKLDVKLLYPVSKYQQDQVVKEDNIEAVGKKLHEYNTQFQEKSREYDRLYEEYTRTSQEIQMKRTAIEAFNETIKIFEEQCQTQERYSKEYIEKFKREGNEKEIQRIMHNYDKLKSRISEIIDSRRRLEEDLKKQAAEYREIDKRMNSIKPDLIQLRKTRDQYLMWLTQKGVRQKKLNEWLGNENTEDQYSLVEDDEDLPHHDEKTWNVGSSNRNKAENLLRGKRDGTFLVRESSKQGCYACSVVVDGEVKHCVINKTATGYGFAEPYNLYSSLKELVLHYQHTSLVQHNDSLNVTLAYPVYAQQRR
T1 sequence (Q06187 whole entry): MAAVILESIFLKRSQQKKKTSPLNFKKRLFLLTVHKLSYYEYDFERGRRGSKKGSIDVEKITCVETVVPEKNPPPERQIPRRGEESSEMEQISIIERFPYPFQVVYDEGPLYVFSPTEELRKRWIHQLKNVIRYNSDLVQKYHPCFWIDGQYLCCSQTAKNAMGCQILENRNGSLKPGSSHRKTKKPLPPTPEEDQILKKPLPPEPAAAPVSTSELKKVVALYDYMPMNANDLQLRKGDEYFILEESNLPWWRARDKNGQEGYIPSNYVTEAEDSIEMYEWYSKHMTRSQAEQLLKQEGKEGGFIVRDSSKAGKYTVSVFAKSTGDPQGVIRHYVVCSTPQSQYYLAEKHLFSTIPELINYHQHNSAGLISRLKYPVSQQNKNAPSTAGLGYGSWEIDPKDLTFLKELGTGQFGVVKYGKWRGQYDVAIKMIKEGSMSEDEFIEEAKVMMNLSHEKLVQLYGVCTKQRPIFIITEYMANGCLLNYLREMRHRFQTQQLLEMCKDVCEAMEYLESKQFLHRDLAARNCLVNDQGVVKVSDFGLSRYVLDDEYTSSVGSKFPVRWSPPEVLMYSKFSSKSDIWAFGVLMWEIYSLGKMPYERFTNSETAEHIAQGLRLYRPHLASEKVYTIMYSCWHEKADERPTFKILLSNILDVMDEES

Compound | BTK @ 0.1 μM (% Inh) (BTK) | IC50 (BTK) [nM] | PI3Kδ @ 0.1 μM (% Inh) (PI3Kδ) | IC50 (PI3Kδ) [nM] | BTK @ 0.01 μM (% Inh) (BTK) | PI3Kδ @ 0.01 μM (% Inh) (PI3Kδ) | IC50 (CD69+B220+ cells; mouse splenocytes) [nM] | BTK @ 1 μM (% Inh) (BTK) | PI3Kδ @ 1 μM (% Inh) (PI3Kδ) | CD69 @ 100 nM (% Inh) (CD69+B220+ cells; mouse splenocytes) | IC50 (CD69+B220+ cells; Mus musculus) [nM] | CD69 @ 100 nM (% Inh) (CD69+B220+ cells; mouse splenocytes, 0.1 µM)
Nc1ncnc2c1c(-c1cc(O)cc(Cl)c1)nn2C1Cc2ccccc2C1 [Compound No. 67, 3-[4-amino-1-(2,3-dihydro-1H-inden-2-yl)-1H-pyrazolo[3,4-d]pyrimidin-3-yl]-5-chlorophenol] | 43.63 | 142 | 84.5 | 4.1 |  |  |  | 87.64 | 90.92 | 65.11 ± 18.09 (n = 6) % Inh | 109 ± 57 | 
Nc1ncnc2c1c(-c1cc(F)c3c(c1)NCCO3)nn2C1Cc2ccc(F)cc2C1 (centres unmarked) [compound 121, 1-(5-fluoro-2,3-dihydro-1H-inden-2-yl)-3-(8-fluoro-3,4-dihydro-2H-1,4-benzoxazin-6-yl)-1H-pyrazolo[3,4-d]pyrimidin-4-amine] | 6.55 |  | 25.95 |  | 90.34 | 1.09 |  |  |  | −82.03 ± 14.71 (n = 3) % Inh |  | 
Nc1cc(-c2nn(C3CCc4ccccc4C3)c3ncnc(N)c23)cc(F)c1F (centres unmarked) [compound 122, 3-(3-amino-4,5-difluorophenyl)-1-(1,2,3,4-tetrahydronaphthalen-2-yl)-1H-pyrazolo[3,4-d]pyrimidin-4-amine] | 53.15 |  | 25.32 |  | 12.72 | −3.68 |  |  |  | 2.58 ± 4.93 (n = 3) % Inh |  | 
Nc1ncnc2c1c(-c1ccc3[nH]c(O)nc3c1)nn2C1Cc2ccccc2C1 [compound 108, 5-[4-amino-1-(2,3-dihydro-1H-inden-2-yl)-1H-pyrazolo[3,4-d]pyrimidin-3-yl]-1H-1,3-benzodiazol-2-ol] | 6.6 |  | 21.98 |  | 1.76 | 9.28 |  |  |  | 11.99 ± 7.58 (n = 3) % Inh |  | 
Nc1ncnc2c1c(-c1cc(O)c(F)c(F)c1)nn2C1CCc2ncccc21 (centres unmarked) [compound 126, 5-(4-amino-1-{5H,6H,7H-cyclopenta[b]pyridin-5-yl}-1H-pyrazolo[3,4-d]pyrimidin-3-yl)-2,3-difluorophenol] | 8.18 |  | 2.3 |  | 8.16 | 4.71 |  |  |  | 12.35 ± 7.52 (n = 3) % Inh |  | 
NC(=O)c1ccc(-c2nn(C3Cc4ccccc4C3)c3ncnc(N)c23)cc1O [compound 111, 4-[4-amino-1-(2,3-dihydro-1H-inden-2-yl)-1H-pyrazolo[3,4-d]pyrimidin-3-yl]-2-hydroxybenzamide] | 17.47 |  | 91.28 |  | 6.49 | 64.38 | 118 ± 11.1 |  |  | 57.39 ± 5.05 (n = 3) % Inh |  | 
Nc1ncnc2c1c(-c1ccc3[nH]cnc3c1)nn2C1CCc2ccccc2C1 (single isomer, unassigned) [Compound No. 19b, 3-(1H-benzo[d]imidazol-5-yl)-1-(1,2,3,4-tetrahydronaphthalen-2-yl)-1H-pyrazolo[3,4-d]pyrimidin-4-amine] |  | 1270 |  | 6.4 |  |  |  |  |  |  |  | 36.67 ± 6.35 (n = 6) % Inh
COc1ccc(-c2nn(C3CCc4ccccc4C3)c3ncnc(N)c23)cc1F (single isomer, unassigned) [Compound No. 14b, 3-(3-fluoro-4-methoxyphenyl)-1-(1,2,3,4-tetrahydronaphthalen-2-yl)-1H-pyrazolo[3,4-d]pyrimidin-4-amine] |  | 1590 |  | 25.4 |  |  |  |  |  | 24.20 ± 12.24 (n = 6) % Inh |  | 
COc1cc(-c2nn(C3Cc4ccccc4C3)c3ncnc(N)c23)cc(C#N)c1OC [Compound No. 105, 5-[4-amino-1-(2,3-dihydro-1H-inden-2-yl)-1H-pyrazolo[3,4-d]pyrimidin-3-yl]-2,3-dimethoxybenzonitrile] | 27.50 |  | 16.0 |  |  |  |  | 59.18 | 34.72 | 24.25 ± 33.84 (n = 5) % Inh |  | 
Nc1ncnc2c1c(-c1cc(O)cc(F)c1)nn2C1CCc2cc(F)ccc21 (centres unmarked) [compound 42, 3-[4-amino-1-(5-fluoro-2,3-dihydro-1H-inden-1-yl)-1H-pyrazolo[3,4-d]pyrimidin-3-yl]-5-fluorophenol] | 23.06 |  | 70.85 |  |  |  |  |  |  | 22.71 ± 5.53 (n = 3) % Inh |  | 
Nc1ncnc2c1c(-c1cc(O)c(F)c(Cl)c1)nn2C1Cc2ccccc2C1 [compound 117, 5-[4-amino-1-(2,3-dihydro-1H-inden-2-yl)-1H-pyrazolo[3,4-d]pyrimidin-3-yl]-3-chloro-2-fluorophenol] | 67.32 |  | 91.69 |  | 21.31 | 75.86 |  |  |  | 46.59 ± 11.89 (n = 3) % Inh |  | 

Second part, led by results:

BTK @ 0.1 μM (% Inh) (BTK) | IC50 (BTK) [nM] | PI3Kδ @ 0.1 μM (% Inh) (PI3Kδ) | IC50 (PI3Kδ) [nM] | BTK @ 0.01 μM (% Inh) (BTK) | PI3Kδ @ 0.01 μM (% Inh) (PI3Kδ) | IC50 (CD69+B220+ cells; mouse splenocytes) [nM] | Compound | BTK @ 1 μM (% Inh) (BTK) | PI3Kδ @ 1 μM (% Inh) (PI3Kδ) | CD69 @ 100 nM (% Inh) (CD69+B220+ cells; mouse splenocytes) | IC50 (CD69+B220+ cells; Mus musculus) [nM] | CD69 @ 100 nM (% Inh) (CD69+B220+ cells; mouse splenocytes, 0.1 µM)
5.3 |  | 56.84 |  | 0.44 | 13.73 |  | NC(=O)c1cc(-c2nn(C3Cc4ccccc4C3)c3ncnc(N)c23)cc(O)c1F [compound 132, 5-[4-amino-1-(2,3-dihydro-1H-inden-2-yl)-1H-pyrazolo[3,4-d]pyrimidin-3-yl]-2-fluoro-3-hydroxybenzamide] |  |  | 27.67 ± 13.46 (n = 3) % Inh |  | 
65.15 |  | 95.72 |  | 19.01 | 79.16 |  | Nc1ncnc2c1c(-c1cc(O)c(Cl)c(Cl)c1)nn2C1Cc2ccccc2C1 [compound 118, 5-[4-amino-1-(2,3-dihydro-1H-inden-2-yl)-1H-pyrazolo[3,4-d]pyrimidin-3-yl]-2,3-dichlorophenol] |  |  | 44.32 ± 10.35 (n = 3) % Inh |  | 
0.17 |  | 53.68 |  | −2.45 | 13.11 |  | NC(=O)c1cc(-c2nn(C3CCc4ccccc4C3)c3ncnc(N)c23)cc(O)c1F (centres unmarked) [compound 131, 5-[4-amino-1-(1,2,3,4-tetrahydronaphthalen-2-yl)-1H-pyrazolo[3,4-d]pyrimidin-3-yl]-2-fluoro-3-hydroxybenzamide] |  |  | 15.73 ± 14.11 (n = 3) % Inh |  | 
1.41 |  | 91.68 |  | 93.67 | 77.84 |  | N#Cc1cc(-c2nn(C3Cc4ccccc4C3)c3ncnc(N)c23)cc(O)c1F [compound 120, 5-[4-amino-1-(2,3-dihydro-1H-inden-2-yl)-1H-pyrazolo[3,4-d]pyrimidin-3-yl]-2-fluoro-3-hydroxybenzonitrile] |  |  | −99.28 ± 22.26 (n = 3) % Inh |  | 
38.11 |  | 39.52 |  | 8.12 | 20.77 |  | CNc1cc(-c2cn(C3Cc4ccccc4C3)c3ncnc(N)c23)cc(F)c1F [compound 113, 5-[3,4-difluoro-5-(methylamino)phenyl]-7-(2,3-dihydro-1H-inden-2-yl)-7H-pyrrolo[2,3-d]pyrimidin-4-amine] |  |  | 11.61 ± 11.81 (n = 3) % Inh |  | 
63.35 |  | 26.17 |  | 14.85 | 2.46 |  | Nc1cc(-c2nn(C3Cc4ccccc4C3)c3ncnc(N)c23)cc(F)c1F [compound 109, 3-(3-amino-4,5-difluorophenyl)-1-(2,3-dihydro-1H-inden-2-yl)-1H-pyrazolo[3,4-d]pyrimidin-4-amine] |  |  | 10.19 ± 14.12 (n = 3) % Inh |  | 
